Consider nine molecules from US8486962B2, “Antifungal agents” (F2G Ltd., priority 2005, dated 2013).

Values after ≈ are worked out from the molar mass of the structure shown. Like-named read-outs stand apart in the source and are kept apart here.

The test system of one assay is Aspergillus niger. The assay can be described thus: MIC, YAG medium, Aspergillus niger. Type of assay: cell-based. To be noted: Aspergillus niger, read-out: MIC A Niger 1. The procedure, abridged: (§1)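 OD at 485 nm versus drug-free control defines MIC (mg/L): >80% inhibition for Candida albicans in RPMI/2% glucose/MOPS pH7.0 after 24-48 hrs at 35° C, >70% for Aspergillus strains in YAG medium after 24 hrs at 35° C. Spore inocula 1-2×10^4 cfu/ml; yeast 1-2×10^3 cfu/ml.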

A further assay relates to Aspergillus flavus. The assay can be described thus: MIC, YAG medium, Aspergillus flavus. As to conditions: Aspergillus flavus, read-out: MIC A Flavus 01. In kind it is cell-based. A digest of the protocol: as §1
In the next assay the test system is Aspergillus terreus. In words: MIC, YAG medium, Aspergillus terreus. Type of assay: cell-based. To be noted: Aspergillus terreus, read-out: MIC A Terreus 4. The procedure, abridged: as §1
Another assay concerns A Terreus 49. In words: MIC, YAG medium, A Terreus 49. In kind it is cell-based, Aspergillus terreus. To be noted: Aspergillus terreus, read-out: MIC A Terreus 49. The procedure, abridged: as §1
Assay [1] deals with Aspergillus fumigatus AF210. The assay can be described thus: MIC, YAG medium, Aspergillus fumigatus AF210. As to conditions: Aspergillus fumigatus. Type of assay: cell-based. A digest of the protocol:
as §1

In assay [2] the test system is Aspergillus fumigatus AF293. In words: MIC, YAG medium, Aspergillus fumigatus AF293. Type of assay: cell-based. To be noted: Aspergillus fumigatus. A digest of the protocol:
as §1

Setting [3] is: AF210, YAG medium, read-out: MIC A Fum. 210.
[4] abbreviates: AF293, YAG medium, read-out: MIC A Fum. 293.

Usually MIC stands for the least concentration at which growth counts as inhibited. For the molecule `CN1CCN(c2ccc(NC(=O)C(=O)c3c(-c4ccccc4)cc4ccccn34)cc2)CC1` [Example 262, N-[4-(4-Methyl-piperazin-1-yl)-phenyl]-2-oxo-2-(2-phenyl-indolizin-3-yl)-acetamide], the MIC was found to be 6.25 µg/mL (≈ 14.3 µM) with Aspergillus niger (YAG medium); 1.6 µg/mL (≈ 3.65 µM) in the assay on Aspergillus flavus (YAG medium); 1.6 µg/mL (≈ 3.65 µM) in the assay on Aspergillus terreus (YAG medium); 1.6 µg/mL (≈ 3.65 µM) in the assay on A Terreus 49 (YAG medium); 1.6 µg/mL (≈ 3.65 µM) in assay [1] (setting [3]); 1.6 µg/mL (≈ 3.65 µM) in assay [2] (setting [4]).

`CN(Cc1ccccc1)C(=O)c1cccc(NC(=O)C(=O)c2c(-c3ccccc3)cc3ccccn23)c1` [Example 263, N-Benzyl-N-methyl-3-[2-oxo-2-(2-phenyl-indolizin-3-yl)-acetylamino]-benzamide]: the MIC in the assay on Aspergillus niger (YAG medium) came to 0.8 µg/mL (≈ 1.64 µM); with Aspergillus flavus (YAG medium), 0.05 µg/mL (≈ 0.103 µM); with Aspergillus terreus (YAG medium), 0.2 µg/mL (≈ 0.41 µM); in the assay on A Terreus 49 (YAG medium) it was 0.1 µg/mL (≈ 0.205 µM); in assay [1] (setting [3]), 0.4 µg/mL (≈ 0.82 µM); in assay [2] (setting [4]), 0.4 µg/mL (≈ 0.82 µM).

Take `CC1(c2ccc(NC(=O)C(=O)c3c(-c4ccccc4)cc4ccccn34)cc2)OCCO1` [Example 264, N-[4-(2-Methyl-[1,3]dioxolan-2-yl)-phenyl]-2-oxo-2-(2-phenyl-indolizin-3-yl)-acetamide]: the MIC in the assay with Aspergillus niger (YAG medium) is 0.05 µg/mL (≈ 0.117 µM); in the assay with Aspergillus flavus (YAG medium) it was 0.05 µg/mL (≈ 0.117 µM); in the assay with Aspergillus terreus (YAG medium), 0.015 µg/mL (≈ 0.0352 µM); in the assay with A Terreus 49 (YAG medium), 0.008 µg/mL (≈ 0.0188 µM); in assay [1] (setting [3]), 0.05 µg/mL (≈ 0.117 µM); in assay [2] (setting [4]), 0.05 µg/mL (≈ 0.117 µM).

Consider `O=C(Nc1ccc(F)cc1F)C(=O)c1c(-c2ccc(F)cc2F)cc2ccccn12` [Example 265, N-(2,4-Difluoro-phenyl)-2-[2-(2,4-difluoro-phenyl)-indolizin-3-yl]-2-oxo-acetamide], for which the MIC in the assay with Aspergillus niger (YAG medium) is 0.008 µg/mL (≈ 0.0194 µM); in the assay on Aspergillus flavus (YAG medium), 0.1 µg/mL (≈ 0.243 µM); in the assay with Aspergillus terreus (YAG medium), 0.015 µg/mL (≈ 0.0364 µM); in the assay with A Terreus 49 (YAG medium), 0.06 µg/mL (≈ 0.146 µM); in assay [1] (setting [3]) it was greater than 50 µg/mL; in assay [2] (setting [4]) it was greater than 50 µg/mL.

As to `CCN(CC)C(=O)Oc1cccc(NC(=O)C(=O)c2c(-c3ccccc3)cc3ccccn23)c1` [Example 266, Diethyl-carbamic acid 3-[2-oxo-2-(2-phenyl-indolizin-3-yl)-acetylamino]-phenyl ester], the minimum inhibitory concentration (MIC) in the assay on Aspergillus niger worked out at 6.25 µg/mL (≈ 13.7 µM); with Aspergillus flavus, 0.2 µg/mL (≈ 0.439 µM); with Aspergillus terreus, 0.2 µg/mL (≈ 0.439 µM); in the assay on A Terreus 49, 0.2 µg/mL (≈ 0.439 µM); in assay [1] (AF210, read-out: MIC A Fum. 210) it was 1.6 µg/mL (≈ 3.51 µM); in assay [2] (AF293, read-out: MIC A Fum. 293) it was 0.8 µg/mL (≈ 1.76 µM).

For the molecule `CC(=O)c1cccc(NC(=O)C(=O)c2c(-c3ccccc3)cc3ccccn23)c1` [Example 267, N-(3-Acetyl-phenyl)-2-oxo-2-(2-phenyl-indolizin-3-yl)-acetamide], the MIC in the assay on Aspergillus niger (YAG medium) was 0.4 µg/mL (≈ 1.05 µM); with Aspergillus flavus (YAG medium) it was 0.05 µg/mL (≈ 0.131 µM); with Aspergillus terreus (YAG medium), 0.1 µg/mL (≈ 0.261 µM); in the assay on A Terreus 49 (YAG medium) it was 0.05 µg/mL (≈ 0.131 µM); in assay [1] (setting [3]) it was 0.8 µg/mL (≈ 2.09 µM); in assay [2] (setting [4]), 0.4 µg/mL (≈ 1.05 µM).

Take `O=C(Nc1ccc(-c2ncco2)cc1)C(=O)c1c(-c2ccccc2)cc2ccccn12` [Example 268, N-(4-Oxazol-2-yl-phenyl)-2-oxo-2-(2-phenyl-indolizin-3-yl)-acetamide]: the MIC with Aspergillus niger (YAG medium) was 0.015 µg/mL (≈ 0.0368 µM); in the assay on Aspergillus flavus (YAG medium) it was 0.03 µg/mL (≈ 0.0736 µM); with Aspergillus terreus (YAG medium), 0.015 µg/mL (≈ 0.0368 µM); in the assay with A Terreus 49 (YAG medium) it was 0.015 µg/mL (≈ 0.0368 µM); in assay [1] (setting [3]) it was 0.06 µg/mL (≈ 0.147 µM); in assay [2] (setting [4]) it was 0.1 µg/mL (≈ 0.245 µM).

`COc1ccccc1-c1cc2ccccn2c1C(=O)C(=O)Nc1ccc(F)cc1F` [Example 269, N-(2,4-Difluoro-phenyl)-2-[2-(2-methoxy-phenyl)-indolizin-3-yl]-2-oxo-acetamide]: the MIC is 0.1 µg/mL (≈ 0.246 µM) with Aspergillus niger (YAG medium); 0.2 µg/mL (≈ 0.492 µM) in the assay on Aspergillus flavus (YAG medium); 0.2 µg/mL (≈ 0.492 µM) with Aspergillus terreus (YAG medium); 0.2 µg/mL (≈ 0.492 µM) with A Terreus 49 (YAG medium); 1.6 µg/mL (≈ 3.94 µM) in assay [1] (setting [3]); 1.6 µg/mL (≈ 3.94 µM) in assay [2] (setting [4]).

As to `Cc1cc(NC(=O)C(=O)c2c(-c3ccccc3)cc3ccccn23)ccc1N(C)C` [Example 273, N-(4-Dimethylamino-3-methyl-phenyl)-2-oxo-2-(2-phenyl-indolizin-3-yl)-acetamide], the MIC in the assay on Aspergillus niger (YAG medium) came to 0.12 µg/mL (≈ 0.302 µM); with Aspergillus flavus (YAG medium), 0.004 µg/mL (≈ 0.0101 µM); in the assay with Aspergillus terreus (YAG medium) it was 0.004 µg/mL (≈ 0.0101 µM); in the assay with A Terreus 49 (YAG medium) it was 0.002 µg/mL (≈ 0.00503 µM); in assay [1] (setting [3]) it was 0.031 µg/mL (≈ 0.078 µM); in assay [2] (setting [4]), 0.062 µg/mL (≈ 0.156 µM).
